The structures appear in SMILES notation.

For the data set the following is noted: solid crystalline form; no method or figures given.

As for `C[N+]1(C)C2CC(OC(=O)C(O)(c3cccs3)c3cccs3)CC1C1OC12.NC(N)=O.[Br-]` (stereo not shown) [tiotropium bromide-urea co-crystal], the hygroscopical behaviour result was “only very little hygroscopical behaviour”.

For the origin of these results see patent US20110257215A1, “NOVEL CO-CRYSTAL OF TIOTROPIUM BROMIDE” (Boehringer Ingelheim Pharma GmbH CO.KG, priority 2006, published 2011).
